Assay results reported in patent US6780838B2, “Compounds for treating fungal pathologies of the oral cavity” (priority 2001, dated 2004).
Where no end group is shown, it is not given here.

Assays:
[1] = amino acids added to C-terminal α-MSH (11-13); cited from earlier work
C. albicans [2] = assay: C. albicans colony forming units (viability) after incubation with peptide; type: cell-based; details: for relative potency in reducing C. albicans viability: 10^−4 M melanocortin peptides (FIG. 2 legend: all 10^−6 M); for reducing C. albicans CFU at higher concentrations: up to 10^−4 M, results not shown in the figures
Method: C. albicans (clinical isolate) was obtained from the collection of the Department of Microbiology, Ospedale Maggiore di Milano and maintained on Sabouraud's agar slants and periodically transferred to Sabouraud's agar plates and incubated for 48 hours at 28° C. To prepare a stationary growth phase yeast, a colony was taken from the agar plate and transferred into 30 ml Sabouraud-dextrose broth and incubated for 72 hours at 32° C. Cells were centrifuged and suspended in Hank's balanced salt solution (“HBSS”) to the desired concentration. Viability, determined by the exclusion of 0.01% methylene blue, remained >98%.
C. albicans (1×10^6/ml in HBSS) was incubated in the presence of absence or (1-13) (SEQ ID NO: […]) or (11-13) (SEQ ID NO: 1) at concentrations in the range of 10^−15 M to 10^−6 M for 2 hours at 37° C. Cells were then washed in cold distilled water and diluted with HBSS to a concentration of 100 organisms/ml. One-ml aliquots were dispensed on blood agar plates and incubated for 48 hours at 37° C. Organism viability was estimated from the number of colonies formed.
In subsequent experiments using familiar procedures we compared activity of α-MSH (4-10) (SEQ ID NO: 2), (6-13) (SEQ ID NO: 3), (11-13) (SEQ ID NO: 1), ACTH (SEQ ID NO: 5) (1-39), (18-39) (SEQ ID NO: 6) and fluconazole, the latter an established antifungal agent. Melanocortin peptides and fluconazole were tested in concentrations of 10^−6 M to 10^−4 M. There were at least six replicates for each concentration of peptide. […]

[3] = versus α-MSH; cited from earlier work
C. albicans [4] = assay: C. albicans colony forming units (viability) after incubation with peptide; type: cell-based; details: FIG. 1; peptide 10^−12 M to 10^−4 M; 2 hours at 37° C.; p<0.01 vs. control
[5] = stereochemistry analogs, Hiltz et al. 1991; cited from earlier work
C. albicans [6] = assay: C. albicans killing by human neutrophils; type: cell-based; details: FIG. 4; 10^−12 M to 10^−4 M; 2 hours at 37° C.; p<0.01
Method: Venous blood (20 ml) from health volunteers was anticoagulated with heparin. Neutrophils were isolated using dextran sedimentation and Ficoll-Hypaque (Sigma Chemical Co., St. Louis, […]., USA) centrifugation. Erythrocytes were lysed via hypotonic shock. Neutrophils represented at least 97% of the cell suspension. Cell viability, estimated by trypan blue exclusion, was >98%. Neutrophils were suspended to a final concentration in HBSS. C. albicans (1×^6) were opsonized with human AB serum in a shaking water bath for 30 minutes at 37° C. Organisms were then incubated with neutrophils in medium or in medium with α-MSH (1-13) (SEQ ID NO: 4) or α-MSH(11-13) (SEQ ID NO: 1) in concentrations of 10^31 15 M to 10^31 4 M in a shaking water bath for 2 hours at 37° C. After incubation, the culture tubes were placed on ice stop growth and extracellular organisms were washed twice with centrifugation at 1000×g at 4° C. A 2.5% sodium desoxycholoate solution was added to obtain a suspension of […]. Two 1/100 serial dilutions in HBSS were made to obtain a final suspension of 100 cells/ml. Aliquots of 1 ml were dispensed on blood agar plates and incubated for 48 hours at 37° C. Colony forming units (CFUs) were counted at the end of the incubation period. Experiments were run in triplicate and repeated using blood from 5 different donors.

[7] = test system: cAMP content of C. albicans; assay: cAMP content of permeabilized C. albicans (EIA); type: cell-based; details: FIG. 5; 10^−6 M, 3 minutes; increase of same order of magnitude as equimolar forskolin
Method: C. albicans ([…]), permeabilized with toluene/ethanol, were incubated at 37° C. with continuous shaking in the presence of 10^31 6 M α-MSH(1-13) (SEQ ID NO: 4), (11-13) (SEQ ID NO: 1), forskolin, an agent known to increase intracellular cAMP, or in medium alone. The reaction was stopped after 3 minutes by the addition of ice cold ethanol, cAMP was measured in duplicate using a commercial enzyme immunoassay (EIA) kit (Amersham, United Kingdom) after extraction via the liquid-phase method according to manufacturer's instructions. The effect of forskolin (10^−6 M) on C. albicans colony formation was determined using the same procedure as for α-MSH peptides.

Substance: 10-13 sequence: α-MSH 10-13, glycine added to the 11-13 sequence (GKPV; ends and bridges not checked; UniProt P01189 147-150, looked up, fragment)
- antipyretic potency relative to the 11-13 sequence [1]: slightly decreased the potency

Substance: ACTH (1-39): adrenocortitrophic hormone (1-39) (SYSMEHFRWGKPVGKKRRPVLVYPAGEDDEASEAFPLEF)
- relative potency in reducing C. albicans viability (C. albicans [2]; FIG. 2): did not reduce C. albicans viability
- reducing C. albicans CFU at higher concentrations (C. albicans [2]): ineffective

Substance: 9-13 sequence: α-MSH 9-13 sequence (WGKPV; ends and bridges not checked; UniProt P01189 146-150, looked up, fragment)
- antipyretic potency relative to the 11-13 sequence [1]: almost devoid of activity

Substance: [Nle^4,D-Phe^7]-α-MSH
- potency in reducing fever relative to the parent peptide [3]: approximately 10 times

Substance: VPK-Ac-CC-Ac-KPV (Ac-CKPV; also: disulfide-linked dimer through Cys)
- C. albicans colony forming units (CFU) (C. albicans [4]): inhibited C. albicans colony formation
- effectiveness against microbes compared with α-MSH (11-13) (C. albicans [2]): at least as effective

Substance: α-MSH (4-10): core α-MSH sequence (4-10), SEQ ID NO: 2
- inhibition of CFU (C. albicans [2]; FIG. 2, 10^−4 M (FIG. 2 legend: 10^−6 M), p<0.01 vs. control): approximately 50%

Substance: Ac-[D-K^11]-α-MSH 11-13-NH2
- anti-inflammatory potency/activity relative to the L-form tripeptide α-MSH 11-13 [5]: same general potency

Substance: ACTH fragment (18-39): ACTH fragment (18-39) (CLIP) (RPVLVYPAGEDDEASEAFPLEF)
- relative potency in reducing C. albicans viability (C. albicans [2]; FIG. 2): did not reduce C. albicans viability
- reducing C. albicans CFU at higher concentrations (C. albicans [2]): ineffective

Substance: SYSMEHFRWGKPV [α-MSH (1-13)]
- killing of C. albicans by human neutrophils (C. albicans [6]): enhanced the killing
- cAMP content in the yeast [7]: enhanced
- C. albicans colony forming units (CFU) (C. albicans [4]): greatly reduced
- relative potency in reducing C. albicans viability (C. albicans [2]; FIG. 2): most effective

Substance: KPV (Ac-Lys-Pro-Val-NH2) [α-MSH (11-13)]
- killing of C. albicans by human neutrophils (C. albicans [6]): enhanced the killing
- cAMP content in the yeast [7]: enhanced
- C. albicans colony forming units (CFU) (C. albicans [4]): greatly reduced
- relative potency in reducing C. albicans viability (C. albicans [2]; FIG. 2): most effective

Substance: 8-13 sequence: α-MSH 8-13 sequence (RWGKPV; ends and bridges not checked; UniProt P01189 145-150, looked up, fragment)
- antipyretic potency relative to the 11-13 sequence [1]: greater than that of the 11-13 sequence

Substance: HFRWGKPV (Ac-HFRWGKPV-NH2) [α-MSH (6-13)]
- relative potency in reducing C. albicans viability (C. albicans [2]; FIG. 2): most effective
